Measurements reported in ChEMBL document CHEMBL5370643, “Discovery of MK-1468: A Potent, Kinome-Selective, Brain-Penetrant Amidoisoquinoline LRRK2 Inhibitor for the Potential Treatment of Parkinson's Disease” (J Med Chem, 2023).

Assays:
[1] = target: Voltage-gated inwardly rectifying potassium channel KCNH2 (Homo sapiens, UniProt Q12809); test: (§1) Inhibition of hERG expressed in CHO cells by QPatch voltage clamp assay
hERG = hERG (Homo sapiens, UniProt Q12809); test: as §1; details: human, CHO cells expressing hERG
[2] = target: Voltage-dependent L-type calcium channel subunit alpha-1C (Homo sapiens, UniProt Q13936); test: Inhibition of human Cav1.2
[3] = Drug metabolism in dog assessed as amide hydrolysis mediated metabolite formation by MetID analysis; assay type: ADME, Canis lupus familiaris
[4] = target: Leucine-rich repeat serine/threonine-protein kinase 2 (Homo sapiens) (UniProt Q5S007); test: Inhibition of LRRK2 in human PBMC using LRRKtide peptide as substrate assessed as Ser935 dephosphorylation preincubated with compound for 15 mins followed by substrate addition and measured after 90 mins in presence of ATP by TR-FRET assay; assay type: cell-based; details: time 105.0 min
[5] = target: Leucine-rich repeat serine/threonine-protein kinase 2 (Homo sapiens, UniProt Q5S007, G2019S); test: Inhibition of recombinant N-terminal GST-fused LRRK2 […] mutant (970 to 2527 residues) (unknown origin) using LRRKtide peptide as substrate assessed as inhibition of substrate phosphorylation preincubated with compound for 15 mins followed by substrate addition and measured after 90 mins in presence of ATP by TR-FRET assay
[6] = MRT in Beagle dog at […], iv measured after 24 hrs by LC-MS/MS analysis; assay type: ADME, organism-based, Canis lupus familiaris; details: in vivo, dose 0.25 mg/kg
[7] = Intrinsic clearance in rhesus monkey at 1 mg/kg, iv measured after 24 hrs by LC-MS/MS analysis; assay type: ADME, organism-based, Macaca mulatta; details: in vivo
[8] = MRT in rhesus monkey at 1 mg/kg, iv measured after 24 hrs by LC-MS/MS analysis; assay type: ADME, organism-based, Macaca mulatta; details: in vivo
[9] = Oral bioavailability in rhesus monkey at 2 mg/kg measured after 24 hrs by LC-MS/MS analysis; assay type: ADME, organism-based, Macaca mulatta; details: in vivo
[10] = Lipophilicity, logD of compound at pH 7 by HT-HPLC/DAD analysis; assay type: physicochemical; details: buffer
Nav1.5 = Nav1.5 (Homo sapiens, UniProt Q14524); test: (§2) Inhibition of human Nav1.5 expressed in HEK293 cells by QPatch voltage clamp assay; assay type: cell-based; details: human, HEK293 cells expressing human Nav1.5
[11] = target: Sodium channel protein type 5 subunit alpha (Homo sapiens, UniProt Q14524); test: as §2; assay type: cell-based
[12] = AUC in Wistar-Han rat at 50 mg/kg by LC-MS/MS analysis; assay type: ADME, organism-based; design: dose 50 mg/kg; details: in vivo
[13] = Unbound brain-to-plasma concentration ratio in iv dosed Wistar-Han rat administered as cassette dose by LC-MS/MS analysis; assay type: ADME, organism-based; details: read-out: K(p,uu,brain)
[14] = Oral bioavailability in Beagle dog at 1 mg/kg measured after 24 hrs by LC-MS/MS analysis; assay type: ADME, organism-based, Canis lupus familiaris; details: in vivo
[15] = Intrinsic clearance in Wistar-Han rat at 2 mg/kg, iv measured after 24 hrs by LC-MS/MS analysis; assay type: ADME, organism-based; details: in vivo
[16] = Oral bioavailability in Wistar-Han rat at 5 mg/kg measured after 24 hrs by LC-MS/MS analysis; assay type: ADME, organism-based; details: in vivo
[17] = AUC in Wistar-Han rat at 300 mg/kg by LC-MS/MS analysis; assay type: ADME, organism-based; design: dose 300 mg/kg; details: in vivo
[18] = Total clearance in Wistar-Han rat at 2 mg/kg, iv measured after 24 hrs by LC-MS/MS analysis; assay type: ADME, organism-based; details: in vivo
rat Mdr1a P-gp = test: Apparent permeability across apical to basolateral side in LLC-PK1 cells transfected with rat Mdr1a P-gp incubated for 3 hrs by LC-MS/MS analysis; details: pig
[19] = Total clearance in rhesus monkey at 1 mg/kg, iv measured after 24 hrs by LC-MS/MS analysis; assay type: ADME, organism-based, Macaca mulatta; details: in vivo
mouse BCRP = test: Efflux ratio of apparent permeability across basolateral to apical over apical to basolateral side in MDCK-II cells transfected with mouse BCRP incubated for 3 hrs by LC-MS/MS analysis; details: dog
[20] = target: MAP/microtubule affinity-regulating kinase 3 (Homo sapiens, UniProt P27448); test: Inhibition of recombinant human full length MARK3 expressed in insect cells using CHKtide as substrate preincubated with compound for 15 mins followed by substrate addition and measured after 15 mins in the presence of ATP by scintillation based radiometric LeadHunter assay
rat Mdrl1 P-gp = test: Efflux ratio of apparent permeability across basolateral to apical over apical to basolateral side in MDCK cells transfected with rat Mdrl1 P-gp incubated for 3 hrs by LC-MS/MS analysis; details: dog, MDCK-MDR1
[21] = Cardiotoxicity in guinea pig assessed as increase in QTc interval at 20 to 50 mg/kg, iv administered continuously for 20 min by ECG analysis; assay type: toxicity, organism-based, Cavia porcellus; details: in vivo, dose 20-50 mg/kg
[22] = target: KCNQ1/KCNE1 (IKs, Kv7.1/MinK) (Homo sapiens, UniProt P15382+P51787); test: Inhibition of human KCNQ1/KCNE1 expressed in HEK293 cells at 30 uM by QPatch voltage clamp assay relative to control; assay type: cell-based; details: HEK293 cells expressing human KCNQ1/KCNE1
[23] = Toxicity in Wistar-Han rat assessed as tolerance at 50 to 300 mg/kg, qd; assay type: organism-based; details: in vivo, dose 50-300 mg/kg
[24] = Cardiotoxicity in guinea pig assessed as increase in QRS interval at 20 to 50 mg/kg, iv administered continuously for 20 min by ECG analysis; assay type: toxicity, organism-based, Cavia porcellus; details: in vivo, dose 20-50 mg/kg
[25] = Total clearance in Beagle dog at […], iv measured after 24 hrs by LC-MS/MS analysis; assay type: ADME, organism-based, Canis lupus familiaris; details: in vivo, dose 0.25 mg/kg
[26] = Intrinsic clearance in Beagle dog at […], iv measured after 24 hrs by LC-MS/MS analysis; assay type: ADME, organism-based, Canis lupus familiaris; details: in vivo, dose 0.25 mg/kg
[27] = Cardiotoxicity in guinea pig assessed as increase in PR interval at 20 to 50 mg/kg, iv administered continuously for 20 min by ECG analysis; assay type: toxicity, organism-based, Cavia porcellus; details: in vivo, dose 20-50 mg/kg
[28] = MRT in Wistar-Han rat at 2 mg/kg, iv measured after 24 hrs by LC-MS/MS analysis; assay type: ADME, organism-based; details: in vivo

Sequence of Voltage-dependent L-type calcium channel subunit alpha-1C (Q13936 whole entry): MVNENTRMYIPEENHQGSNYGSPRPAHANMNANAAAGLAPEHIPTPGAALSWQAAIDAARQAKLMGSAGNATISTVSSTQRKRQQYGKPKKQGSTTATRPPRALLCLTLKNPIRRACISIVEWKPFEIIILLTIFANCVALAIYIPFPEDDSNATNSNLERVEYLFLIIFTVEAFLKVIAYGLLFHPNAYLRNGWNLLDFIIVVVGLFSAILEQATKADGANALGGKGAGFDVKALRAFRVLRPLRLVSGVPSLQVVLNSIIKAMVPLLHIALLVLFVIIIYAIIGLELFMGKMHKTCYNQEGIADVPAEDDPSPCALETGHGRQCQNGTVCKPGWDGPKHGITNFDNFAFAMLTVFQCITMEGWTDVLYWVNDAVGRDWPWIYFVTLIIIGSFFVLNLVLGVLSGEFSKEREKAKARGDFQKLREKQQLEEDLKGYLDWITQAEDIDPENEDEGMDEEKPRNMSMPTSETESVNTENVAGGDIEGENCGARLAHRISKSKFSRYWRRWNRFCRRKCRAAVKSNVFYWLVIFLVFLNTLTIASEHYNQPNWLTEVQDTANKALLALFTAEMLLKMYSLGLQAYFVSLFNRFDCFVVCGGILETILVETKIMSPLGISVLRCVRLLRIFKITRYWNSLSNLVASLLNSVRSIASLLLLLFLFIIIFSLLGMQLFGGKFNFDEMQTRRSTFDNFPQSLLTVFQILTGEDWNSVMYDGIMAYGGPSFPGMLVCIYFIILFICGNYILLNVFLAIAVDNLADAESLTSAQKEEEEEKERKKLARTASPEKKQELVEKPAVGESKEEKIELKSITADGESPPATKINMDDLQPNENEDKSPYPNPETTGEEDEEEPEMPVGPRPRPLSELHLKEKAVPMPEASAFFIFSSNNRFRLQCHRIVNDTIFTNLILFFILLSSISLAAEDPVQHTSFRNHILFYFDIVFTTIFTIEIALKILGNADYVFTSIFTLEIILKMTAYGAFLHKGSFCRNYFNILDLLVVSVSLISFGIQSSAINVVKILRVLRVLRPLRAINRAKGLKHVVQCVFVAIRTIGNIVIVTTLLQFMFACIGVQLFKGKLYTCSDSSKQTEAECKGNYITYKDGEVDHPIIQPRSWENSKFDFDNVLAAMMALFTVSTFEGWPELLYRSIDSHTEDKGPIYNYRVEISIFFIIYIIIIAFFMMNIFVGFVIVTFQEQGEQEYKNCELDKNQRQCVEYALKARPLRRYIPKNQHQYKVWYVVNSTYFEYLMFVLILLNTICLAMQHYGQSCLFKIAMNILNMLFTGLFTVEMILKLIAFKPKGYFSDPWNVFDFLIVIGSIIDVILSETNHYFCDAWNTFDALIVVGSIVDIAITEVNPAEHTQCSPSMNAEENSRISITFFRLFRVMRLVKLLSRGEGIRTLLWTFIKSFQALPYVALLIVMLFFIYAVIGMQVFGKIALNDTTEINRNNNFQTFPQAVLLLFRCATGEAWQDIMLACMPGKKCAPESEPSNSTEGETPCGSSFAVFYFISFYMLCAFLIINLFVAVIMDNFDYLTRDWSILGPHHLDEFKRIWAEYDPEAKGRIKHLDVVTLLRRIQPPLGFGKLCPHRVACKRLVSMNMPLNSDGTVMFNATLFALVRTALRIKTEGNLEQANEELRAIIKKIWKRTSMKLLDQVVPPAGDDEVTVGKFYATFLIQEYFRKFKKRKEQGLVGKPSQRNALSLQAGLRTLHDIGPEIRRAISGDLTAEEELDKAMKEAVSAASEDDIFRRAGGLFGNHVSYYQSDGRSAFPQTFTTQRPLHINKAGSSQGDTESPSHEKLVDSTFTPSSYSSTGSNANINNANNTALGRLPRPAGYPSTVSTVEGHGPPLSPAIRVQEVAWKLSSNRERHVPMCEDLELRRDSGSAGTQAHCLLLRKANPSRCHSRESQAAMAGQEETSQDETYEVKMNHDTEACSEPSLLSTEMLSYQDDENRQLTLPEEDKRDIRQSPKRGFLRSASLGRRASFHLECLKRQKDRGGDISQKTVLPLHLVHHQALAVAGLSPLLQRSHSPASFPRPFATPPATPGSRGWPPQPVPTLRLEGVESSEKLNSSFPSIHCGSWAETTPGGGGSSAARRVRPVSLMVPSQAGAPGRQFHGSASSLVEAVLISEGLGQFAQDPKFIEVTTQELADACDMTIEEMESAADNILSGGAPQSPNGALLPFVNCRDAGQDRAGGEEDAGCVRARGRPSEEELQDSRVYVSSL
Sequence of Leucine-rich repeat serine/threonine-protein kinase 2 (Homo sapiens) (Q5S007 whole entry, the tested form may be a part): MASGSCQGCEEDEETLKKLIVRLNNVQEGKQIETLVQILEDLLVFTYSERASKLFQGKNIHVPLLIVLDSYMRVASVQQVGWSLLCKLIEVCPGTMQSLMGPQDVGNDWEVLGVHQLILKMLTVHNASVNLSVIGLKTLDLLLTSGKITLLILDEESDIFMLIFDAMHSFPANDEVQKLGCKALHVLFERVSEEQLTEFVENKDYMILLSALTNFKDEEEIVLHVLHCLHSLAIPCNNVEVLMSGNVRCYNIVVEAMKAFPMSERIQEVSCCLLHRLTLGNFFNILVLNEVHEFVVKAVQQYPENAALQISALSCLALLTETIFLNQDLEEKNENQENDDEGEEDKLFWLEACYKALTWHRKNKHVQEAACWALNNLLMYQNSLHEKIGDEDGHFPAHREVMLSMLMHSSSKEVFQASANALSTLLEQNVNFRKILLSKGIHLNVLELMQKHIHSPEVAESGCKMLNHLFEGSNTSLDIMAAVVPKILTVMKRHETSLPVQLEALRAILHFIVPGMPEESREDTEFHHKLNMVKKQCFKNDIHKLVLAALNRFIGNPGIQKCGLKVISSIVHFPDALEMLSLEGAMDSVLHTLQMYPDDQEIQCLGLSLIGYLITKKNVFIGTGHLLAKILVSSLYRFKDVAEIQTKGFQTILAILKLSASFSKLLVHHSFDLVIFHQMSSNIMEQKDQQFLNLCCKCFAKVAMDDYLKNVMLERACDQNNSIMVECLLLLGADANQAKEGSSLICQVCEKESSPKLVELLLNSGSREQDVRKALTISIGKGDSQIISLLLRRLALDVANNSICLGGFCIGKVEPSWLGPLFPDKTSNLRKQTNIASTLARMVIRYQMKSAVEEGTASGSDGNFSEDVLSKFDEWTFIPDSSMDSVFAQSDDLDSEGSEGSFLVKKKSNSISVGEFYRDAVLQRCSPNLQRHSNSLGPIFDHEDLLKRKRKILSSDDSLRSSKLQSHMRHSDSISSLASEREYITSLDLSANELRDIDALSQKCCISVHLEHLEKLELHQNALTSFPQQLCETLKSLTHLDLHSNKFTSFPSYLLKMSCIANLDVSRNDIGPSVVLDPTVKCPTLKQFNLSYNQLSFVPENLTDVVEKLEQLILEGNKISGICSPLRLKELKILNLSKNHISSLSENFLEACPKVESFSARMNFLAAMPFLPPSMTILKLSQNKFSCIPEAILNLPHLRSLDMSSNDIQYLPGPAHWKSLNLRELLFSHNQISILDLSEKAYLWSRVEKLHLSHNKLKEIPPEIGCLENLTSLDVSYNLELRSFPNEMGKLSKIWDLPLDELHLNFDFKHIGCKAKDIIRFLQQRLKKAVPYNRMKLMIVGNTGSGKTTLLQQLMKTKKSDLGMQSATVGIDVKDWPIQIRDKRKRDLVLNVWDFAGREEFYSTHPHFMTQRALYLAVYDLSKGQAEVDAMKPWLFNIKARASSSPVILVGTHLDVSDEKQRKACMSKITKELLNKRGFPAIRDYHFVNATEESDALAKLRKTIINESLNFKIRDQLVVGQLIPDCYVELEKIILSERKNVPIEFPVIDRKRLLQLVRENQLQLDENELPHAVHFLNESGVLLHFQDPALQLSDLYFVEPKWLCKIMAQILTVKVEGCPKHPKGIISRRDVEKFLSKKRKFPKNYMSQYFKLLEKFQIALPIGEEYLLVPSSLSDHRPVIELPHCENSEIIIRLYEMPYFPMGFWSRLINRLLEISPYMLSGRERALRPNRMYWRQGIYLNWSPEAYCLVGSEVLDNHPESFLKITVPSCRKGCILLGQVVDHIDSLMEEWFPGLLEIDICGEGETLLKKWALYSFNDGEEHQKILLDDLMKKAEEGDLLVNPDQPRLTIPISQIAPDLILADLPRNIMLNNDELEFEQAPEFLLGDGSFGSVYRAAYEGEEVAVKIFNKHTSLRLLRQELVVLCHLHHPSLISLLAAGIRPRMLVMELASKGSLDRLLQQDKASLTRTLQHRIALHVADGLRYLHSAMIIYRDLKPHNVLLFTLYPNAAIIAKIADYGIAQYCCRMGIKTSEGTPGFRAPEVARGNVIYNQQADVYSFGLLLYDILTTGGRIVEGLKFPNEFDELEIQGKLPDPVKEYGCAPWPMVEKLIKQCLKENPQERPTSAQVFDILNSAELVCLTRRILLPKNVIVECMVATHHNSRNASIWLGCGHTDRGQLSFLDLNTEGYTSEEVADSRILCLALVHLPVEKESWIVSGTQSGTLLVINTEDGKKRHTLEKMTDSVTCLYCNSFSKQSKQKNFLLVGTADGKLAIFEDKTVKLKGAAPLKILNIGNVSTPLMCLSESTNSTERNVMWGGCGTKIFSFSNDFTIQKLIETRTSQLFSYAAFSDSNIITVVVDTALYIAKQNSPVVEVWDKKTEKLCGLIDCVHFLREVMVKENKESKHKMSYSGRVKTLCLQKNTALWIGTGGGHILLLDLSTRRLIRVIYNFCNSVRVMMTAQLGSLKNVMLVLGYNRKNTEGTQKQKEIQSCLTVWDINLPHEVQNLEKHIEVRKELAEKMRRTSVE
Sequence of Leucine-rich repeat serine/threonine-protein kinase 2 (Q5S007 whole entry G2019S, the tested form may be a part): as the sequence (Q5S007 whole entry, the tested form may be a part) above, with G2019S counted along it

For C[C@@]1(N2CCC(c3cc4cc(NC(=O)C5CC56CC6)ncc4cc3Cl)CC2)COC[C@@H]1O (stereo partly drawn), the IC50 [1] was 3700 nM, the IC20 (hERG) was 1300 nM and the “inhibition (INH)” value [2] was “Not Active”. The Drug metabolism [3] was “Metabolite_Notdetected”, the fIC50 [4] was 2.8 nM and the IC50 [5] was 3 nM. The MRT at 24 h [6] was 33 h, the CL [7] was 341 mL/min/kg and the MRT [8] was 10 h. The bioavailability [9] was 21%, the logD [10] was 3 and the IC20 (Nav1.5) was 10000 nM. It also gave an IC50 [11] of 28000 nM, an AUC [12] of 111 µM·h and a Kp uu [13] of 0.6. The bioavailability [14] was 81%, the CL [15] was 271 mL/min/kg and the bioavailability [16] was 100%. It also gave an AUC [17] of 458 µM·h, a clearance [18] of 11 mL/min/kg and a Papp A→B at 3 h (rat Mdr1a P-gp) of 30 ×10⁻⁶ cm/s. For the same compound, the clearance [19] was 13 mL/min/kg, the efflux ratio at 3 h (mouse BCRP) was 1.1 and the IC50 [20] was 29 nM. The efflux ratio at 3 h (rat Mdrl1 P-gp) was 1.5, the Activity [21] was “Toxic” and the inhibition at 30 µM [22] was 15%. For the same compound, the Activity [23] was “Non-Toxic”, the Activity [24] was “Toxic” and the clearance at 24 h [25] was 9 mL/min/kg. For the same compound, the CL [26] was 341 mL/min/kg, the Activity [27] was “Toxic” and the MRT [28] was 9 h.
